In one series the target is T1, mouse recombinant Casp1 (Mus musculus, UniProt P29452).
T1 sequence (P29452 119-296 limits assumed): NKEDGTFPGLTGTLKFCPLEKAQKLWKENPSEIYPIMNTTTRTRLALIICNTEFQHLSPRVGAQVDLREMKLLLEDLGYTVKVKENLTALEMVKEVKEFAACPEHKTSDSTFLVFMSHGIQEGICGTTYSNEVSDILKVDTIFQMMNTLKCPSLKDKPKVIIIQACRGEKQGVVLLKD
T1 sequence (P29452 315-402 limits assumed): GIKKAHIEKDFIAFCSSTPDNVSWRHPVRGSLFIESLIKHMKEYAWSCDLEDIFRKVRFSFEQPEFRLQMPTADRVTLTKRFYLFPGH
Nature of the series: Caspase inhibition IC50, mouse recombinant Casp1. It counts as biochemical. The settings on record: read-out: IC50 against mouse Casp1. As to the method: FIG. 14: Selectivity and blood brain permeability of VX-765 and VRT-043198. (a-b) IC50 of VX-765 (a) and VRT-043198 (b) against human Casp1-10. (c-d) IC50 of VX-765 (c) and VRT-043198 (d) against mouse Casp1 and Casp11. (e) Blood brain barrier permeability and presence of VX-765 and VRT-043198 in 3 wild type and 4 J20 mice brain cortex and hippocampus and in plasma. Ratios of brain levels to plasma levels are calculated.

Series [1] relates to J20 mice. The series is described as follows: Amyloid immunostaining and ELISA, preventive treatment of J20 mice. The series is classed as in vivo, mouse. The text has this:
FIG. 24: Immunostaining of mice brains at 8 months of age (20 week washout) with anti-amyloid beta peptide 1-40 antiserum (a). […] (b) Quantitation of the immunopositive density of amyloid staining at 4, 8, 12, 16, and 20 weeks washout of VX-765 when mice are 4, 5, 6, 7, and 8 months respectively. (c) ELISA analyses of RIPA-soluble and formic-acid soluble hippocampal and cortical tissue protein extracts.
(§1) We directly tested whether pre-symptomatic inhibition of inflammation in a mouse genetic model of Alzheimer disease can stem the progression of memory and behavioral deficits, and Alzheimer disease-like pathology. The J20 amyloid precursor protein Swedish/Indiana mutant mouse was treated at 2 months of age for a one month period with 50 mg/Kg Caspase-1 inhibitor VX-765 (FIG. 22a).

Series [2] deals with J20 mice. The series is described as follows: Iba1 and GFAP immunostaining, preventive treatment of J20 mice. It counts as in vivo, mouse.
From the text: (§2) FIG. 4: Immunostainings of mice hippocampus at 4 months of age (PREVENTION GROUP) with microglial Iba-1, astrocyte GFAP, and synaptic synaptophysin antibodies.
FIG. 25: Iba1 immunopositive staining in the mice brain hippocampus at different times of washout (a,b). All sections were immunostained together and automatically with Dako immunostainer and the number of Iba1-immunopositive […] counted stereologically. Statistics done as described in FIG. 10b. (c) Analyses of subtypes of Iba1-immunopositive microglia as described in FIG. 10c.
FIG. 26: GFAP immunopositive staining in the hippocampus of mice brains at different times of washout (a,b). All sections were immunostained together and automatically with Dako immunostainer. Quantitation of GFAP-immunopositive astrocytes was done as described above.
as §1

For series [3], the system named is J20 mice. The series is described as follows: Synaptophysin immunostaining, preventive treatment of J20 mice. The series is classed as in vivo, mouse.
From the text: as §2
FIG. 27: Synaptophysin immunopositive staining in the hippocampus of mice brains at different times of washout. All sections were immunostained together and automatically with Dako immunostainer.
as §1

Series [4] deals with CNS primary human neurons (HPN). The series is described as follows: MTT assay in primary human neurons. It counts as cell-based. The note with it: 25, 50, 100, or 200 μM for 72 hours. As to the method:
(§3) FIG. 13: VX-765 protects CNS primary human neurons (HPN) against APP- or serum deprivation-mediated neuritic beading. (a) MTT assay with increasing dose of VX-765. (b) Fluorescent micrographs showing homogeneous distribution of EGFP in normal neurons and neuritic beading in APP-transfected neurons. (c) Percentage beading in APP-transfected or serum-deprived neurons treated 1 h before and continuously with stressor (Pre-treatment) or 48 h after stressor (post-beading treatment) with 25 or 50 μM VX-765 or with 5 μM Z-YVAD-fmk Casp1 peptide inhibitor. […] (d-e) HPN secreted or cellular Aβ42/total Aβ38+40+42 (d) (F(3,4)=12.73, p=0.0163, ANOVA, Dunnett's post-hoc compared to Serum+DMSO, *p<0.05), and (e) levels of secreted II-1β, IFN-γ, TNF-α, and II-6 from untreated (+S), serum deprived (−S), or serum-deprived human neurons treated with 25 or 50 μM VX-765.
To determine if VX-765 can protect human neurons against neurodegeneration, VX-765 was assessed in primary human fetal CNS neuron cultures. Treatment of HPN with 25, 50, 100, or 200 μM VX-765 for 72 hours was not toxic (FIG. 13a). […] HPN were pre-treated with VX-765 for 1 h before APP transfection and treatment continued thereafter. […] To assess if neuritic beading was reversible, VX-765 was administered 48 hours after APP^WT transfection or serum deprivation.

For series [5], the system named is APP^WT-transfected human primary neurons. The series is described as follows: Neuritic beading in APPWT-transfected human primary neurons. It counts as cell-based. As to the method: as §3
EGFP-labeled human primary neurons were either APP^WT transfected or serum deprived. Two treatment strategies were employed to determine VX-765's effects on neuronal degeneration: our Pre-Treatment strategy looked at whether VX-765 could block neuronal degeneration when administered 1 hr prior to APP^WT transfection or serum deprivation, while our Reversal Treatment strategy looked at whether VX-765 could reverse degenerative effects when administered 48 hrs after APP^WT transfection or serum deprivation. Neurons displaying beaded morphology were counted with live imaging and measured as a percentage of the total number of eGFP+ neurons from 24-72 hrs after treatment. The irreversible caspase-1 inhibitor YVAD-fmk was used as positive control in our experiments. Results were obtained from averaging counts for at least 100 eGFP+ neurons per experiment in three independent neuron preparations.

These results are taken from patent publication US11160788B2, “Caspase-1 inhibition and uses thereof for prevention and treatment of neurological conditions” (priority 2016, dated 2021).

Take `CCO[C@@H]1OC(=O)C[C@@H]1NC(=O)[C@@H]1CCCN1C(=O)[C@@H](NC(=O)c1ccc(N)c(Cl)c1)C(C)(C)C` [VX-765, (S)-1-((S)-2-{[1-(4-amino-3-chloro-phenyl)-methanoyl]-amino}-3,3-dimethyl-butanoyl)-pyrrolidine-2-carboxylic acid ((2R,3S)-2-ethoxy-5-oxo-tetrahydro-furan-3-yl)-amide]: at mouse recombinant Casp1, the IC50 was 52.1 nM. Moreover, the “RIPA-soluble Aβ38, Aβ40, Aβ42, total Aβ, Aβ42/total Aβ” value with J20 mice [1] (ELISA, hippocampal tissue) is reported as “do not detect major differences”. Also, the “formic acid soluble Aβ measures” value in the series on J20 mice [1] (cortical) was “not reduced”. Besides, the “amyloid levels in RIPA-soluble protein extracts” value with J20 mice [1] (cortical tissue) is given as “no effect”. For the same compound, the “immunopositive density of amyloid staining” value in the series on J20 mice [1] (hippocampi and cortex, 16 and 20 week washout) is on record as “slightly less amyloid”. In addition, the “formic acid soluble Aβ42/total Aβ” value in the series on J20 mice [1] (hippocampi, 20 week washout) is given as “lower”. Besides, the “RIPA-soluble Aβ42/total Aβ” value in the series on J20 mice [1] (hippocampus, 20 week washout) was “slightly decreased”. In the series on J20 mice [2] (4 month old J20 brains), the GFAP astrogliosis result is reported as “possibly GFAP astrogliosis” and the “microglial Iba1 positive inflammation” value is given as “reduced microglial Iba1 positive inflammation”. For the same compound, the “astrocytic GFAP immunostaining” value in the series with J20 mice [2] (different times of washout) is given as “does not reach statistical significance”. In the series on J20 mice [2] (hippocampus and cortex, different times of washout), the “Iba1 positive microglial inflammation” value is “strongly decreased microglial inflammation”. Besides, the subtype of microglia result with J20 mice [2] (up to the 12 week washout, hippocampus and cortex) is on record as “restores resting microglia numbers”. For the same compound, the synaptophysin levels result with J20 mice [3] (4 month old J20 brains) is listed as “impressive preservation of synaptophysin levels”. The synaptophysin immunostaining entry in the series with J20 mice [3] (hippocampus, different times of washout) was “partly re-established”. In addition, the “toxicity (MTT assay)” value in series [4] is listed as “not toxic”. Also, in series [5] (pre-treatment 1 h before and continued, VX-765 25 and 50 μM, Z-YVAD-fmk 5 μM, 48 and 72 h), the neuritic beading entry was “prevented neuritic beading”. In addition, the “reduction in neuritic beading” value in series [5] (pre-treatment 1 hr prior, 48 hrs and 72 hrs post transfection, vs DMSO) came to 40%.
